Experimental data as given in paper PMC5111045, “Modulation of NMDA channel gating by Ca^2+ and Cd^2+ binding to the external pore mouth” (Scientific Reports, 2016).
Values joined by “and” are separate entries in the source; they are usually repeats but may differ in a detail not shown here. Identical values can stand only once. Like-named read-outs stand apart in the source and are kept apart here.

Assays:
[1] = biological target: T1, D658A mutant NMDA channel (Rattus norvegicus, UniProt P35439+Q00960, D658A); assay: Outside-out patch recordings, D658A mutant NMDA channel; format: cell-based; conditions: 30 μM Cd2+ between NMDA pulses; P = 0.034
T1 construct: expressed in transfected cells; host or cells: Xenopus laevis oocytes (cRNA injection)
Procedure: (§1) The rat GluN1a variant and GluN2B cDNA clones were used in this study. Point mutations were made by site-directed mutagenesis using the QuickChange Site-Directed Mutagenesis kit (Stratagene, La Jolla, CA). Mutations were verified by DNA sequencing to ensure the lack of any inadvertent mutations. The capped cRNA transcripts were then synthesized using T7 and T3 mMESSAGE mMACHINE transcription kits (Ambion, Austin, TX), and were stored at −80 °C.
(§2) This study was carried out in accordance with the ethical information guidelines of the National Taiwan University College of Medicine. The protocols for the care and use of animals were approved by the National Taiwan University College of Medicine and College of Public Health Institutional Animal Care and Use Committee (IACUC). All efforts were made to minimize animal suffering. […]
(§3) Oocytes were placed in a recording chamber containing Mg^2+-free bath solution (150 mM NaMeSO3, 5 mM NaCl, and 10 mM HEPES; pH 7.4). […] The NMDA currents were recorded at a membrane potential of −70 mV and at room temperature (~25 °C) with an […] amplifier, filtered at 1 kHz with a four-pole Bessel filter, digitized at 500 μs intervals, and stored using a Digidata-1322A analog/digital interface along with the pCLAMP software (all from MDS Analytical Technologies, Sunnyvale, CA). […]

[2] = biological target: E661A mutant NMDA channel; assay: Outside-out patch recordings, E661A mutant NMDA channel; format: cell-based, rat; conditions: Hill coefficient of 1 assumed
Procedure: as §1, §2, §3

[3] = biological target: E662A mutant NMDA channel; assay: Outside-out patch recordings, E662A mutant NMDA channel; format: cell-based, rat; conditions: Hill coefficient of 1 assumed
Procedure: as §1, §2, §3

[4] = biological target: T2, D658AE661AE662A triple mutant NMDA channel (Rattus norvegicus, UniProt P35439+Q00960, D658A/E661A/E662A); assay: Outside-out patch recordings, D658AE661AE662A triple mutant NMDA channel; format: cell-based
T2 construct: expressed in transfected cells; host or cells: Xenopus laevis oocytes (cRNA injection)
Procedure: as §1, §2, §3

[5] = biological target: T3, NMDA receptor channel (GluN1a variant/GluN2B), wild-type (Rattus norvegicus, UniProt P35439+Q00960); assay: Outside-out patch recordings of NMDA receptor currents, wild-type channel expressed in Xenopus oocytes; format: cell-based
T3 construct: expressed in transfected cells; host or cells: Xenopus laevis oocytes (cRNA injection)
Procedure: as §1
(§4) This study was carried out in accordance with the ethical information guidelines of the National Taiwan University College of Medicine. The protocols for the care and use of animals were approved by the National Taiwan University College of Medicine and College of Public Health Institutional Animal Care and Use Committee (IACUC). All efforts were made to minimize animal suffering. Adult female Xenopus laevis were anesthetized, and ovarian lobes containing stage V or VI oocytes were removed. Oocytes were dispersed after manual disruption of the egg sac, and were digested for 1 hr with collagenase type I (2 mg/ml) to remove the follicular layer. A mixture of GluN1a variant and GluN2B cRNAs with a ratio of 1:5 (i.e., 0.1–4 ng of GluN1a variant and 0.5–20 ng of GluN2B) (Kashiwagi et al. 2002) was injected into oocytes. Oocytes were maintained in the culture medium (96 mM NaCl, 2 mM KCl, 1.8 mM MgCl2, 1.8 mM CaCl2, 5 mM HEPES, and 50 ug/ml gentamycin, pH 7.6) at 18 °C for 2–3 days before electrophysiological recordings.
Oocytes were placed in a recording chamber containing Mg^2+-free bath solution (150 mM NaMeSO3, 5 mM NaCl, and 10 mM HEPES; pH 7.4). Outside-out patch recordings were obtained using fire-polished pipettes pulled from borosilicate capillaries (outer diameter, 1.55–1.60 mm; Hilgenberg, Malsfeld, Germany). Recording pipettes ([…]) were filled with the pipette solution containing 150 mM NaMeSO3, 5 mM NaCl, 5 mM EGTA, and 10 mM HEPES (pH 7.4). A seal was formed, and the outside-out patch configuration was obtained in Tyrode’s solution (150 mM NaCl, 4 mM KCl, 2 mM MgCl2, 2 mM CaCl2, and 10 mM HEPES; pH 7.4). The patch was then lifted from the bottom of the chamber and moved in front of a set of “theta glass” tubes (2.0 mm outer diameter pulled to an opening of ~300 μm in width; Warner Instrument, Hamden, CT) emitting external recording solutions. The standard external solution was Mg^2+-free Ca^2+-free Tyrode’s solution (pH 7.4), but 2 mM Ca^2+ or 0.1–100 μM Cd^2+ may be added to the external recording solution as specified in each different experimental condition. The glass-tube holder was connected to a stepper motor (SF-77B perfusion system, Warner Instrument) to achieve fast switch for rapid solution change. Drugs and salts were purchased from Sigma (St. Louis, MO). NMDA, glycine, and Cd^2+ were dissolved in water to make 100, 100, and 10 mM stock solutions, respectively. The stock solutions were then diluted into the external recording solution to make 1 to 100 μM Cd^2+, 1 to 300 μM NMDA, and 30 μM glycine. The NMDA currents were recorded at a membrane potential of −70 mV and at room temperature (~25 °C) with an […] amplifier, filtered at 1 kHz with a four-pole Bessel filter, digitized at 500 μs intervals, and stored using a Digidata-1322A analog/digital interface along with the pCLAMP software (all from MDS Analytical Technologies, Sunnyvale, CA). To plot the activation and the desensitization curves, a patch was moved from the NMDA- and glycine-free external solution to the external solution containing 0 to 100 μM NMDA and 30 μM glycine for 3 s (the desensitization prepulse), and then moved to another external solution containing 300 μM NMDA and 30 μM glycine for 3 s (the test pulse) before being moved back to the NMDA-free external solution again. The amplitude of the sustained currents in the desensitization prepulse in each different concentration of NMDA is normalized to the maximal current and plotted against the NMDA concentration to obtain the activation curve. […]

[6] = biological target: T4, T647A (GluN2B) mutant NMDA channel (Rattus norvegicus, UniProt P35439+Q00960, T647A); assay: Outside-out patch recordings, T647A (GluN2B) mutant NMDA channel; format: cell-based; conditions: 30 μM Cd2+
T4 construct: expressed in transfected cells; host or cells: Xenopus laevis oocytes (cRNA injection)
Procedure: as §1, §4, §3

[7] = biological target: T5, E661AE662A double mutant NMDA channel (Rattus norvegicus, UniProt P35439+Q00960, E661A/E662A); assay: Outside-out patch recordings, E661AE662A double mutant NMDA channel; format: cell-based; conditions: for coupling coefficient ((KdWT × KdE661AE662A)/(KdE661A × KdE662A)), double mutant cycle analysis: mutations E661A and E662A; for Kd: E661AE662A, Hill coefficient of 1 assumed
T5 construct: expressed in transfected cells; host or cells: Xenopus laevis oocytes (cRNA injection)
Procedure: as §1, §4
Oocytes were placed in a recording chamber containing Mg^2+-free bath solution (150 mM NaMeSO3, 5 mM NaCl, and 10 mM HEPES; pH 7.4). Outside-out patch recordings were obtained using fire-polished pipettes pulled from borosilicate capillaries (outer diameter, 1.55–1.60 mm; Hilgenberg, Malsfeld, Germany). Recording pipettes ([…]) were filled with the pipette solution containing 150 mM NaMeSO3, 5 mM NaCl, 5 mM EGTA, and 10 mM HEPES (pH 7.4). A seal was formed, and the outside-out patch configuration was obtained in Tyrode’s solution (150 mM NaCl, 4 mM KCl, 2 mM MgCl2, 2 mM CaCl2, and 10 mM HEPES; pH 7.4). The patch was then lifted from the bottom of the chamber and moved in front of a set of “theta glass” tubes (2.0 mm outer diameter pulled to an opening of ~300 μm in width; Warner Instrument, Hamden, CT) emitting external recording solutions. The standard external solution was Mg^2+-free Ca^2+-free Tyrode’s solution (pH 7.4), but 2 mM Ca^2+ or 0.1–100 μM Cd^2+ may be added to the external recording solution as specified in each different experimental condition. The glass-tube holder was connected to a stepper motor (SF-77B perfusion system, Warner Instrument) to achieve fast switch for rapid solution change. Drugs and salts were purchased from Sigma (St. Louis, MO). NMDA, glycine, and Cd^2+ were dissolved in water to make 100, 100, and 10 mM stock solutions, respectively. The stock solutions were then diluted into the external recording solution to make 1 to 100 μM Cd^2+, 1 to 300 μM NMDA, and 30 μM glycine. The NMDA currents were recorded at a membrane potential of −70 mV and at room temperature (~25 °C) with an […] amplifier, filtered at 1 kHz with a four-pole Bessel filter, digitized at 500 μs intervals, and stored using a Digidata-1322A analog/digital interface along with the pCLAMP software (all from MDS Analytical Technologies, Sunnyvale, CA). […]

[8] = Fig. 5e inset, read-out: apparent dissociation constant, closed channel, derived from relative peak current in 30 μM Cd2+
[9] = Fig. 6e inset, read-out: apparent dissociation constant, activated channel, derived from relative sustained current in 30 μM Cd2+

T5 sequence (Q00960 27-1482, other chains not shown): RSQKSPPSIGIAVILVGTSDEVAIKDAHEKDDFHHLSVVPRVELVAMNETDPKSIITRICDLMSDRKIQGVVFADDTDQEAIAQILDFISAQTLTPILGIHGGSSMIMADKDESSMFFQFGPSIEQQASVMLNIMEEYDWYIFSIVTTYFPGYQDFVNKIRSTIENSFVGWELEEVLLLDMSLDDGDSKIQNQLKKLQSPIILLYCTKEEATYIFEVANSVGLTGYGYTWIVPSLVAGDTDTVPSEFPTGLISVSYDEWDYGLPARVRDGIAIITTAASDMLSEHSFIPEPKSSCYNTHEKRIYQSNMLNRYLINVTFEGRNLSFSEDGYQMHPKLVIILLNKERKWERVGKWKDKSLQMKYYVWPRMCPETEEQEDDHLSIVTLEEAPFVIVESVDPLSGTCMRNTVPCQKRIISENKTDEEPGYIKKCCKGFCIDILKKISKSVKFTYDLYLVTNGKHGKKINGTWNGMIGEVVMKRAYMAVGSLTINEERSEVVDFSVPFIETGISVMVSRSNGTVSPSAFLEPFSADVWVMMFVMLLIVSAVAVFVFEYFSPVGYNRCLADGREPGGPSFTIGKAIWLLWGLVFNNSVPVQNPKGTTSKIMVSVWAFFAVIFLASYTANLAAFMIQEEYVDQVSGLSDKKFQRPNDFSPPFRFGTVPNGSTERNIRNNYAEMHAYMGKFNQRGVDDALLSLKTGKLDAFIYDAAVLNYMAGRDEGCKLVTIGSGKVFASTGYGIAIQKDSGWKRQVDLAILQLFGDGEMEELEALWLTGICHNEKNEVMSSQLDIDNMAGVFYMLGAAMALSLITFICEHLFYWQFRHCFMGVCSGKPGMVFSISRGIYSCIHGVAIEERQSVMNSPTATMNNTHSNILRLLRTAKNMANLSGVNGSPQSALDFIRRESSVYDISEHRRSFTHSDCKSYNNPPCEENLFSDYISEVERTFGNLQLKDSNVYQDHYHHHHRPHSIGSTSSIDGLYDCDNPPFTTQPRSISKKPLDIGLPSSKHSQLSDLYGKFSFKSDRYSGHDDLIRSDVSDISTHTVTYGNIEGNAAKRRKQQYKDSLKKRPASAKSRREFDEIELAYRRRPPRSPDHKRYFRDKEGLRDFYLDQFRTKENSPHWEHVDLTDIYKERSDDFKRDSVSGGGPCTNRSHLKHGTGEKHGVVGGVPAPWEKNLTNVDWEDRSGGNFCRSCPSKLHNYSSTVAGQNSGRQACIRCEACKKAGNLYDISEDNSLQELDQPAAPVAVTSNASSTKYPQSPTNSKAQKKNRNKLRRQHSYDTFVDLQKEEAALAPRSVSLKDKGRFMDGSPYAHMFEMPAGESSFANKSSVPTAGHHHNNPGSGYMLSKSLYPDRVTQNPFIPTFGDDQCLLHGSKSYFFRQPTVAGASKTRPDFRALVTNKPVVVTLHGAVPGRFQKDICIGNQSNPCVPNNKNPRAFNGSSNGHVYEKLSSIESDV
T3 sequence (Q00960 27-1482, other chains not shown): as above
T4 sequence (Q00960 27-1482 T647A, other chains not shown): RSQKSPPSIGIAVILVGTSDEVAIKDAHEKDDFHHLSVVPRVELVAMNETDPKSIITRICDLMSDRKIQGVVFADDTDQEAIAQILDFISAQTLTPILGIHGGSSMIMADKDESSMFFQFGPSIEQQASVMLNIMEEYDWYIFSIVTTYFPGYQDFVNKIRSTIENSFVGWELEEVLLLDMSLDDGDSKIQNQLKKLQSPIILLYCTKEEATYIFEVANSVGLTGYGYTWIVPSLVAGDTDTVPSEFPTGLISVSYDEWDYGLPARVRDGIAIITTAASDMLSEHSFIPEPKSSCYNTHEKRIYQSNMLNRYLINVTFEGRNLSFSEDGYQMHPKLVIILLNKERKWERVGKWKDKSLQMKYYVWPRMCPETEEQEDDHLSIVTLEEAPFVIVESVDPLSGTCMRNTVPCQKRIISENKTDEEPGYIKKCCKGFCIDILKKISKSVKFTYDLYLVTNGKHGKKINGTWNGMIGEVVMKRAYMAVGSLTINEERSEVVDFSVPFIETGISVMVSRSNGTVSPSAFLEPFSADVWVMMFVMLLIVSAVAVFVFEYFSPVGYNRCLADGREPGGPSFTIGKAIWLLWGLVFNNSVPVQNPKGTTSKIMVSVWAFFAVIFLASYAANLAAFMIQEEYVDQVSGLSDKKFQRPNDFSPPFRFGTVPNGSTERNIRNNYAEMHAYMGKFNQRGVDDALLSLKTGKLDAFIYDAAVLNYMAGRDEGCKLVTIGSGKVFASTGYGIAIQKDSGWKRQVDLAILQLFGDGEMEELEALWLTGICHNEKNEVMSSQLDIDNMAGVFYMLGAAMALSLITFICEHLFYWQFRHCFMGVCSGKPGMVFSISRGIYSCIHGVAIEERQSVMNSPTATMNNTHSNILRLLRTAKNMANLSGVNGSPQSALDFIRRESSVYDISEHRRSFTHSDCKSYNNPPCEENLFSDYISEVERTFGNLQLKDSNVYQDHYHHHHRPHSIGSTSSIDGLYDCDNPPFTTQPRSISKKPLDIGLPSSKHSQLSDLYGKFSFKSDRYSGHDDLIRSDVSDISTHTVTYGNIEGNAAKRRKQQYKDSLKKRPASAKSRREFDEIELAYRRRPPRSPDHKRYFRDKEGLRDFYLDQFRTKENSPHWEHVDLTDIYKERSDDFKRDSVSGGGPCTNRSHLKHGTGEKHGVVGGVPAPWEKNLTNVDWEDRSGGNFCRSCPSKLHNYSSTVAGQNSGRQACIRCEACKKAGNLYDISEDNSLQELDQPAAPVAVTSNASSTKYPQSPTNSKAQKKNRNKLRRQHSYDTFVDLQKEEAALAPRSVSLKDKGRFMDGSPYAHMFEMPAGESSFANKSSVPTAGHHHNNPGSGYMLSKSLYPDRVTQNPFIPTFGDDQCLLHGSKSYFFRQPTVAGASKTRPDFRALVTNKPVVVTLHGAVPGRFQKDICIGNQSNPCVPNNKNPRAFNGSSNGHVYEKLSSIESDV

## [Cd+2] [Cd^2+]
[1]
  effect on peak current, closed channel, compared with WT: less pronounced
[2]; [8]
  Kd: 40.7 µM
[2]; [9]
  Kd: 7.7 µM
[3]; [8]
  Kd: 37.3 µM
[3]; [9]
  Kd: 5.6 µM
[4]; 30 μM Cd2+ between NMDA pulses, P = 0.0093
  effect on peak current, closed channel, compared with WT: less pronounced
[4]; 30 μM Cd2+ during NMDA pulse, P = 0.00031
  effect on sustained current, activated channel, compared with WT: less pronounced
[5]; 3 μM Cd2+, n = 4
  shift of the activation curve: moderate leftward shift
  shift of the desensitization curve: moderate leftward shift
[5]; 30 μM Cd2+ vs 2 mM Ca2+ in the extracellular milieu
  effect on NMDAR currents relative to 2 mM Ca2+: stronger effects than 2 mM Ca^2+
[5]; activated (steady-state mixture of open and desensitized) channel, Cd2+ during the NMDA pulse, Fig. 3b, n = 7, read-out: apparent dissociation constant (Kd), Hill fit of relative sustained current
  Kd: ~1.6 µM
[5]; activated channel, sustained current, mean ± SEM, read-out: Kd from fits of each individual data set, Fig. 3b
  Kd: 1.4 ± 0.16 µM
[5]; activated channel, Fig. 3b
  Hill coefficient n, relative sustained current: 1
[5]; activated channel, essentially zero, n = 4
  slope of unbinding rates against Cd2+ concentration: ~ 0.01 M^−1s^−1
[5]; activated channel, fast application of Cd2+, n = 4
  macroscopic on rate (slope of binding rates against Cd2+ concentration): 430000 M⁻¹ s⁻¹
[5]; activated channel, linear regression, n = 4
  intercept of binding rates against Cd2+ concentration: 9.4 s⁻¹
[5]; activated channel, wash-off of Cd2+, n = 4
  macroscopic off rate (intercept of unbinding rates): 6.8 s⁻¹
[5]; closed (resting) channel, Cd2+ applied in the interpulse phase, Fig. 2b, n = 7, read-out: apparent dissociation constant (Kd), Hill fit of relative peak current
  Kd: 6 µM and ~6 µM
[5]; closed channel, activation speed, mean ± SEM, read-out: Kd from fits of each individual data set, Fig. 2d
  Kd: 3.4 ± 0.66 µM
[5]; closed channel, peak current, mean ± SEM, read-out: Kd from fits of each individual data set, Fig. 2b
  Kd: 7.6 ± 1.2 µM
[5]; closed channel, Cd2+ in the interpulse phase, Fig. 2d, n = 4, read-out: apparent dissociation constant (Kd), Hill fit of relative initial activation speed
  Kd: 4.5 µM and ~4.5 µM
[5]; closed channel, Fig. 2b
  Hill coefficient n, relative peak current: 1
[5]; closed channel, Fig. 2d
  Hill coefficient n, relative activation speed: 1
[5]; equal to KCd2+,o × m/r from model fits in 3 μM Cd2+, not a precise estimate, read-out: KCd2+,d (dissociation constant for Cd2+ binding to the desensitized NMDA channel)
  Kd: 1.25 µM
[5]; model fit (equations 2 and 4) to activation and desensitization data in 3 μM Cd2+, not a precise estimate, read-out: KCd2+,o (dissociation constant for Cd2+ binding to the open NMDA channel)
  Kd: 2.5 µM
[5]; model fit to activation and desensitization data in 3 μM Cd2+, m set at 4
  r value, r = m × (KCd2+,o/KCd2+,d): 8
[5]; ratio between the macroscopic off rate and on rate, Fig. 4a inset, read-out: rough estimate of the dissociation constant of Cd2+ to the open state
  Kd: ~16 µM
[5]; wild-type, Hill coefficient of 1 assumed, Fig. 5e inset, read-out: apparent dissociation constant, closed channel, derived from relative peak current in 30 μM Cd2+
  Kd: 19.6 µM
[5]; wild-type, Hill coefficient of 1 assumed, Fig. 6e inset, read-out: apparent dissociation constant, activated channel, derived from relative sustained current in 30 μM Cd2+
  Kd: 3.2 µM
[6]; P = 0.00012
  relative hook current after wash-off of agonists and blocking cation, compared with WT channel: significantly larger hook current
[6]; n = 8 vs WT n = 6, P = 0.00037
  inhibitory effect on sustained current (relative current) compared with WT channel: significantly smaller effect
[7]; Cd2+ binding to the activated NMDA channel
  coupling coefficient ((KdWT × KdE661AE662A)/(KdE661A × KdE662A)), double mutant cycle analysis: 1.03
[7]; Cd2+ binding to the closed NMDA channel
  coupling coefficient ((KdWT × KdE661AE662A)/(KdE661A × KdE662A)), double mutant cycle analysis: 0.90
[7]; [8]
  Kd: 70.2 µM
[7]; [9]
  Kd: 13.9 µM

## CN[C@H](CC(=O)O)C(=O)O [NMDA]
[5]; read-out: apparent dissociation constant of NMDA (KN), fit to activation data
  Kd: 47 µM
[5]; read-out: apparent dissociation constant of NMDA (KN), fit to desensitization data
  Kd: 35 µM
